Laboratory results from US7642066B2, “High throughput pharmaceutical screening using drosophila” (Washington University, priority 2004, dated 2010).
Entries after “also recorded” stand apart in the source; their conditions may differ. One block for each compound: values may come before it.

Columns and labels:
wild-type Drosophila [1] = system: wild-type Drosophila; parameters: species or system Drosophila melanogaster; conditions: in vivo
Experimental: (§1) Into each well is pipetted 50-400 μl of either standard (control) or high glucose (experimental) Drosophila growth medium. A range of 50-400 μl is a balance between (1) providing sufficient food so as not to place undue feeding stress on the developing flies and (2) providing sufficient air space for the third larval instars to find sufficient wall space to pupate. Any one of several standard Drosophila growth medium recipes as known in the art of breeding Drosophila for research can be used. A known recipe for a standard growth medium includes, for example, water: 1 liter, cornmeal: 61 grams, yeast: 32 grams, agar: 9.3 grams, glucose: 129 grams (or molasses: 67 grams), methyl p-hydrobenzoate: 2.7 grams, and propionic acid: 0.05 liters. A high glucose growth medium is, for example, such a standard Drosophila growth medium supplemented with an additional 1 mole glucose. For example, to prepare a high glucose growth medium, an additional 180 grams of glucose is added to the recipe for standard growth medium as just described. Another embodiment, for example, of a standard growth medium is that prepared as follows: 1 gram agar, 8 grams brewers yeast, 2 grams yeast extract, 2 grams peptone, 3 grams sucrose, 6 grams glucose, 0.05 grams MgSO4×6H20, 0.05 grams CaCl2×2H20, 600 microliters propionic acid, 1 milliliter 10% p-Hydroxy-benzoic acid methyl ester in 95% ethanol, brought to 100 milliliters with water. A high glucose version of this medium is made, for example, by combining 75 milliliters of this medium with 25 milliliters of a 4 molar glucose solution in water.
Alternatively, the experimental growth medium is any growth medium containing an excess amount of a sugar or sugars selected from hexose sugars such as fructose, sorbitol, galactose and glucosamine, and from complex sugars such as sucrose, lactose or maltose.
The addition of 1 molar (1 M) glucose to the Drosophila growth media delayed pupariation, which reached significant levels at day 10 and high levels at day 11.
The developmental arrest can be screened as described in the Examples, infra. Glucose, for example, induces readily observable delays in pupariation as determined by the timing of significant eclosion, and peak eclosion. For example, control Drosophila embryos show significant eclosion beginning at day 8, while Drosophila embryos exposed to high glucose growth medium show significant eclosion beginning at day 11 (1 molar glucose). Similarly, peak eclosion is delayed, for example, from day 10 in controls, to day 12 (1 molar glucose). Thus, candidate compounds are screened by observing changes to the delay in significant eclosion and peak eclosion, as compared to the developmental delay induced by high glucose.
Accordingly, the ability of the hexose sugars fructose, sorbitol, galactose and glucosamine was tested by adding amounts of each sugar to the standard Drosophila growth medium. Fructose and sorbitol induced a 48-hour developmental delay at concentrations similar to those at which glucose induced developmental delay (data not shown).

wild-type Drosophila [2] = experiment: Drosophila high throughput screen: effect of compound on glucose-mediated delay in pupariation; assay type: in vivo, Drosophila melanogaster; conditions: for significant levels of pupariation / high levels of pupariation: 1 M glucose, FIG. 2; for effect on glucose-mediated developmental delay / delay in pupariation: high glucose (1 M glucose in growth media)
Experimental: Accordingly, methods and related articles of composition for high throughput screening assays involve the preparation of microtiter plates each with multiple wells, wherein each well initially contains one or more wild type Drosophila embryos and an amount of a high glucose Drosophila growth medium. The embryos develop while feeding on the high glucose growth medium. The precise age of the embryos at the time they are plated matters less than the fact that they are all about the same age, to permit accurate evaluation of the possible effects of the candidate compound on larval development.
To prepare the microtiter plates, for example, 96-well microtiter plates are used, such as those commonly commercially available and typically used for various laboratory assay techniques, including other high throughput drug assay techniques. A suitable example is a Falcon #3912 flexible 96-well plate. However, other multiple-well microtiter plates can be used.
as §1
A candidate compound, or cocktail of more than one compound, that has been selected for screening is dissolved in EtOH or prepared in DMSO/Aqueous solution. In an exemplary embodiment, EtOH is used. Although DMSO can be used, it can be toxic if it reaches final concentrations of more than 0.3% of the growth medium. The compound in solution is added and allowed to diffuse through the growth medium for an initial period of about 16-24 hours. Wild type Drosophila embryos are collected en masse and, after the initial period of diffusion of the candidate compound through the growth medium, sorted several to a well. In an exemplary embodiment, five to twenty embryos are sorted to each well. However, the number of embryos in each well can easily vary, provided that no more embryos than will flourish in the well are used. The number of embryos per well will also be influenced by the need to obtain a sufficient number of data points to make the test meaningful.
Once the Drosophila embryos are placed into each well on the growth medium, they hatch out and begin feeding after a second period of about 24 hours, bringing the final amount of diffusion time for the subject compound to about 40-48 hours. A period of about 24-48 hours is sufficient for full diffusion of most compounds. […] Finally, each well is sealed with a sealing film such as “Aeraseal Sealing Film” (available from Sigma-Aldrich, St. Louis, Mo.; Sigma #A-9224). […]

[3] = 0.375 mg/ml of food, 1 molar glucose, FIG. 3
[4] = 0.75 mg/ml of food, 1 molar glucose, FIG. 3

Structure (SMILES): COc1ccc(Cl)cc1C(=O)NCCc1ccc(S(=O)(=O)NC(=O)NC2CCCCC2)cc1 [glyburide]
significant levels of pupariation (wild-type Drosophila [2]; 0.25 mg per ml of growth media, no-drug 1 M glucose control approximately day 12): 8 days | high levels of pupariation (wild-type Drosophila [2]; 0.25 mg per ml of growth media, no-drug 1 M glucose control day 13-14): ≤ 10 days | high levels of pupariation (wild-type Drosophila [2]; 1 mg per ml of growth media): 11 days | significant levels of pupariation (wild-type Drosophila [2]; 1 mg per ml of growth media): 11 days | effect on glucose-mediated developmental delay / delay in pupariation (wild-type Drosophila [2]): demonstrated an ability to ameliorate glucose-mediated developmental delay; also recorded: reduced glucose-mediated delay in pupariation

Structure (SMILES): CC(C)[C@H]1CC[C@H](C(=O)N[C@H](Cc2ccccc2)C(=O)O)CC1 [nateglinide]
effect on rate of development (wild-type Drosophila [2]; [3]): partially restored the rate of development | pupariation high rates beginning (wild-type Drosophila [2]; [3]): 9 days | effect on rate of development (wild-type Drosophila [2]; [4]): intermediate result | pupariation high levels beginning (wild-type Drosophila [2]; [4]): 9 days | effect on glucose-mediated developmental delay / delay in pupariation (wild-type Drosophila [2]): demonstrated an ability to ameliorate glucose-mediated developmental delay

Structure (SMILES): O=C(CO)[C@@H](O)[C@H](O)[C@H](O)CO [fructose]
developmental delay induced (wild-type Drosophila [1]; Drosophila melanogaster): 48 h

Structure (SMILES): O=C[C@H](O)[C@@H](O)[C@@H](O)[C@H](O)CO [galactose]
concentration at which toxicity is demonstrated (wild-type Drosophila [1]; Drosophila melanogaster): 0.3 M

Further lines, with some results ahead:

developmental delay induced (wild-type Drosophila [1]; Drosophila melanogaster): 48 h
Structure (SMILES): OC[C@@H](O)[C@@H](O)[C@H](O)[C@@H](O)CO [sorbitol]

concentration inducing a developmental delay (as low as) (wild-type Drosophila [1]; Drosophila melanogaster): 3000 µM | larval emergence (wild-type Drosophila [1]): most larvae failed to emerge
Structure (SMILES): N[C@H]1C(O)O[C@H](CO)[C@@H](O)[C@@H]1O (stereo partly shown) [glucosamine]
developmental delay with progressively higher levels (wild-type Drosophila [1]): progressively longer developmental delays
